The source of these data is patent US11197863B2, “Inhibitors of polo-like kinase 4 (PLK4) for treating pediatric embryonal tumors” (ANN AND ROBERT H. LURIE CHILDREN'S HOSPITAL OF CHICAGO, priority 2017, dated 2021).

Like-named read-outs stand apart in the source and are kept apart here.

Usually IC50 stands for the concentration that inhibits the measured activity by half.

Assay [1] has as its system rhabdoid mouse xenograft models. The following applies: in vivo; cited from earlier work.
For assay [2] the following is noted: children, single agent; cited from earlier work.
In the next assay the test system is MON cells. Description: Combination therapy viability assay. Format: cell-based. The conditions noted are these: Homo sapiens, 72 h, read-out: IC50 of compound 2.
The next assay has as its system BT-16 cells. Nature of the assay: Combination therapy viability assay. In kind it is cell-based. The conditions noted are these: Homo sapiens, BT-16, 72 h, read-out: IC50 of compound 2.
For another assay, the system named is DAOY cells. Description: Combination therapy viability assay. The following applies: Homo sapiens, 72 h.
Assay [3] relates to rhabdoid tumor cell lines. The following applies: inhibition of ERBB2; cited from earlier work.
Setting [4] is: combined with CFI-400945 (5 nM).
[5] abbreviates: combined with CFI-400945 (10 nM).
Where [6] appears, read: read-out: IC50 of compound 2, DAOY, combined with CFI-400945 (5 nM).
The mark [7] stands for this setting: read-out: IC50 of compound 2, DAOY, combined with CFI-400945 (10 nM).

In the case of `COc1cc(Nc2ncc3c(n2)-c2ccc(Cl)cc2C(c2c(F)cccc2OC)=NC3)ccc1C(=O)O` [alisertib], the response rates entry in assay [1] was “high response rates”. The clinical activity result in assay [2] is reported as “active as a single agent”.
`COc1cc([C@@H]2c3cc4c(cc3[C@@H](O[C@@H]3O[C@@H]5CO[C@@H](C)O[C@H]5[C@H](O)[C@H]3O)[C@H]3COC(=O)[C@H]23)OCO4)cc(OC)c1O` [Etoposide, etoposide]: the IC50 was determined as 292 nM with MON cells (setting [4]); 266 nM in the assay on MON cells (setting [5]); 593 nM with BT-16 cells (setting [4]); 6 nM with BT-16 cells (setting [5]); 494 nM in the assay on DAOY cells (setting [6]); 800 nM with DAOY cells (setting [7]).
Consider `COc1cccc2c1C(=O)c1c(O)c3c(c(O)c1C2=O)C[C@@](O)(C(=O)CO)C[C@@H]3O[C@H]1C[C@H](N)[C@H](O)[C@H](C)O1` [Doxorubicin, doxorubicin], for which the IC50 stood at 74 nM with MON cells (setting [4]); 57 nM with MON cells (setting [5]); 566 nM in the assay with BT-16 cells (setting [4]); 576 nM in the assay with BT-16 cells (setting [5]); 168 nM with DAOY cells (setting [6]); 199 nM in the assay on DAOY cells (setting [7]).
Turning to `CS(=O)(=O)CCNCc1ccc(-c2ccc3ncnc(Nc4ccc(OCc5cccc(F)c5)c(Cl)c4)c3c2)o1` [lapatinib], the “cell migration and apoptosis” value in assay [3] was “significant impairment of cell migration and initiation of apoptosis”.
